# According to patent US20060229433A1, “Modified antiviral peptides with increased activity and cell membrane affinity” (priority 2003, published 2006):
# pIC50: −log10 of the molar value. Several values for one entry are separate records, joined by “and”; a condition that tells them apart may be missing. Equal entries are not always repeated. Peptide text beside a SMILES is read from it.
# Legend:
# Assay type in all cases: cell-based
# [1] = system: HIV-1 NL 4-3; test: HIV-1 infection of C8166 cells (syncytia formation, p24 ELISA) with HIV-1 NL 4-3; design: key to syncitia formed, Day 4 / syncitia formed, Day 5 / syncitia formed, Day 6 / syncitia formed, Day 7: ++, +, (+), (+)− and − represent decreasing numbers of syncitia formed; ++, +, (+), (+)− and − represent decreasing numbers of syncitia formed; ++, +, (+), (+)− and − represent decreasing numbers of syncitia formed; ++, +, (+), (+)− and − represent decreasing numbers of syncitia formed; ++, +, (+), (+)− and − represent decreasing numbers of syncitia formed
# Outline: (§1)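 Infection was read out as syncytia and as cell-free p24 in supernatants (ELISA) from C8166 cells that received HIV-1 (1000 TCID50/ml, 1 h, 37 °C) after a 1 h peptide pretreatment. Peptide stayed on before, during and after adsorption. Toxicity was checked by daily trypan-blue counts.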
# [2] = system: HIV-1 NDK; test: HIV-1 infection of C8166 cells (syncytia formation, p24 ELISA) with HIV-1 NDK; design: key to syncitia formed, Day 4 / syncitia formed, Day 5 / syncitia formed, Day 6 / syncitia formed, Day 7: ++, +, (+), (+)− and − represent decreasing numbers of syncitia formed; ++, +, (+), (+)− and − represent decreasing numbers of syncitia formed; ++, +, (+), (+)− and − represent decreasing numbers of syncitia formed; ++, +, (+), (+)− and − represent decreasing numbers of syncitia formed; ++, +, (+), (+)− and − represent decreasing numbers of syncitia formed; conditions: for P 24: P 24 after Day 7
# Outline: as §1
# [3] = system: HIV-1 NL 4-3; test: HIV-1 infection of C8166 cells (syncytia formation, p24 ELISA) with HIV-1 NL 4-3; design: key: ++, +, (+), (+)− and − represent decreasing numbers of syncitia formed; ++, +, (+), (+)− and − represent decreasing numbers of syncitia formed; ++, +, (+), (+)− and − represent decreasing numbers of syncitia formed; ++, +, (+), (+)− and − represent decreasing numbers of syncitia formed; ++, +, (+), (+)− and − represent decreasing numbers of syncitia formed; conditions: Table 6
# Outline: as §1
# [4] = C8166 cells, HIV-1 subtype B NL 4-3, Table 9, two lines = tested twice, 8 days apart
smiles,measurement,setting,value
"N=C(N)NCCC[C@H](NC(=O)CNC(=O)[C@@H]1CCCN1C(=O)CN)C(=O)O [GPGR, reference compound] (H-GPGR-OH; N-terminus and C-terminus assumed)",Day 7 syncitia formed,"[1]; 0.005 μM, Table 6",++/T
same,"syncitia formed, Day 4","[1]; 0.01 μM, C8166 cells",(+)
same,"syncitia formed, Day 5","[1]; 0.01 μM, C8166 cells",+
same,"syncitia formed, Day 6","[1]; 0.01 μM, C8166 cells",++
same,"syncitia formed, Day 7","[1]; 0.01 μM, Day 7, C8166 cells",++
same,P 24,"[1]; 0.01 μM, P 24 after Day 7, C8166 cells",23810 pg/mL
same,"syncitia formed, Day 4","[1]; 0.05 μM, C8166 cells",(+)
same,"syncitia formed, Day 5","[1]; 0.05 μM, C8166 cells",+
same,"syncitia formed, Day 6","[1]; 0.05 μM, C8166 cells",+
same,"syncitia formed, Day 7","[1]; 0.05 μM, Day 7, C8166 cells",++
same,P 24,"[1]; 0.05 μM, P 24 after Day 7, C8166 cells",13810 pg/mL and 12980 pg/mL
same,"syncitia formed, Day 4","[1]; 0.1 μM, C8166 cells",−
same,"syncitia formed, Day 5","[1]; 0.1 μM, C8166 cells",(+)
same,"syncitia formed, Day 6","[1]; 0.1 μM, C8166 cells",+
same,"syncitia formed, Day 7","[1]; 0.1 μM, Day 7, C8166 cells",+
same,"syncitia formed, Day 4","[1]; 0.5 μM, C8166 cells",−
same,"syncitia formed, Day 5","[1]; 0.5 μM, C8166 cells",−
same,"syncitia formed, Day 6","[1]; 0.5 μM, C8166 cells",−
same,"syncitia formed, Day 7","[1]; 0.5 μM, Day 7, C8166 cells",+
same,P 24,"[1]; 0.5 μM, P 24 after Day 7, C8166 cells",23000 pg/mL and 15810 pg/mL
same,"syncitia formed, Day 4","[1]; 1 μM, C8166 cells",−
same,"syncitia formed, Day 5","[1]; 1 μM, C8166 cells",−
same,"syncitia formed, Day 6","[1]; 1 μM, C8166 cells",−
same,"syncitia formed, Day 7","[1]; 1 μM, Day 7, C8166 cells",(+)
same,P 24,"[1]; 1 μM, P 24 after Day 7, C8166 cells",316 pg/mL and 343 pg/mL
same,"syncitia formed, Day 4","[1]; 5 μM, C8166 cells",−
same,"syncitia formed, Day 5","[1]; 5 μM, C8166 cells",−
same,"syncitia formed, Day 6","[1]; 5 μM, C8166 cells",−
same,"syncitia formed, Day 7","[1]; 5 μM, Day 7, C8166 cells",(+)
same,P 24,"[1]; 5 μM, P 24 after Day 7, C8166 cells",152 pg/mL
same,pIC50,[1]; [4],7.22 and 7.00
same,IC100,[1]; [4],5 µM and >5 µM
same,P 24,"[1]; Day 7, 0.005 μM, Table 6",23810 pg/mL
same,P 24,"[1]; Day 7, 0.01 μM, Table 6",23810 pg/mL
same,P 24,"[1]; Day 7, 0.1 μM, Table 6",5810 pg/mL and 10110 pg/mL
same,P 24,"[1]; Day 7, 0.5 μM, Table 6",2507 pg/mL and 2840 pg/mL
same,"syncitia formed, Day 4",[2]; 0.005 μM,−
same,"syncitia formed, Day 5",[2]; 0.005 μM,+
same,"syncitia formed, Day 6",[2]; 0.005 μM,++
same,"syncitia formed, Day 7",[2]; 0.005 μM,++/T
same,P 24,[2]; 0.005 μM,23810 pg/mL
same,"syncitia formed, Day 4",[2]; 0.01 μM,−
same,"syncitia formed, Day 5",[2]; 0.01 μM,+
same,"syncitia formed, Day 6",[2]; 0.01 μM,++
same,"syncitia formed, Day 7",[2]; 0.01 μM,++
same,P 24,[2]; 0.01 μM,23810 pg/mL
same,"syncitia formed, Day 4",[2]; 0.05 μM,−
same,"syncitia formed, Day 5",[2]; 0.05 μM,+
same,"syncitia formed, Day 6",[2]; 0.05 μM,++
same,"syncitia formed, Day 7",[2]; 0.05 μM,++
same,P 24,[2]; 0.05 μM,23810 pg/mL
same,"syncitia formed, Day 4",[2]; 0.1 μM,−
same,"syncitia formed, Day 5",[2]; 0.1 μM,(+)
same,"syncitia formed, Day 6",[2]; 0.1 μM,++
same,"syncitia formed, Day 7",[2]; 0.1 μM,++
same,P 24,[2]; 0.1 μM,21810 pg/mL and 23870 pg/mL
same,"syncitia formed, Day 4",[2]; 0.5 μM,−
same,"syncitia formed, Day 5",[2]; 0.5 μM,(+)
same,"syncitia formed, Day 6",[2]; 0.5 μM,++
same,"syncitia formed, Day 7",[2]; 0.5 μM,++
same,P 24,[2]; 0.5 μM,9810 pg/mL and 15856 pg/mL
same,"syncitia formed, Day 4",[2]; 1 μM,−
same,"syncitia formed, Day 5",[2]; 1 μM,−
same,"syncitia formed, Day 6",[2]; 1 μM,+
same,"syncitia formed, Day 7",[2]; 1 μM,++
same,P 24,[2]; 1 μM,9870 pg/mL and 13890 pg/mL
same,"syncitia formed, Day 4",[2]; 5 μM,−
same,"syncitia formed, Day 5",[2]; 5 μM,−
same,"syncitia formed, Day 6",[2]; 5 μM,+
same,"syncitia formed, Day 7",[2]; 5 μM,++
same,pIC50,"[2]; HIV 1 NDK, Table 10",6.30
same,IC100,"[2]; HIV 1 NDK, Table 10",>5 µM
same,Day 4 syncitia formed,[3]; 0.005 μM,−
same,Day 5 syncitia formed,[3]; 0.005 μM,++
same,Day 6 syncitia formed,[3]; 0.005 μM,++
same,Day 4 syncitia formed,[3]; 0.01 μM,−
same,Day 5 syncitia formed,[3]; 0.01 μM,+
same,Day 6 syncitia formed,[3]; 0.01 μM,++
same,Day 7 syncitia formed,[3]; 0.01 μM,++
same,Day 4 syncitia formed,[3]; 0.05 μM,−
same,Day 5 syncitia formed,[3]; 0.05 μM,+
same,Day 6 syncitia formed,[3]; 0.05 μM,+
same,Day 7 syncitia formed,[3]; 0.05 μM,++
same,Day 4 syncitia formed,[3]; 0.1 μM,−
same,Day 5 syncitia formed,[3]; 0.1 μM,(+)
same,Day 6 syncitia formed,[3]; 0.1 μM,+
same,Day 7 syncitia formed,[3]; 0.1 μM,+
same,Day 4 syncitia formed,[3]; 0.5 μM,−
same,Day 5 syncitia formed,[3]; 0.5 μM,−
same,Day 6 syncitia formed,[3]; 0.5 μM,−
same,Day 7 syncitia formed,[3]; 0.5 μM,+
same,Day 4 syncitia formed,[3]; 1 μM,−
same,Day 5 syncitia formed,[3]; 1 μM,−
same,Day 6 syncitia formed,[3]; 1 μM,−
same,Day 7 syncitia formed,[3]; 1 μM,+
same,Day 4 syncitia formed,[3]; 5 μM,−
same,Day 5 syncitia formed,[3]; 5 μM,−
same,Day 6 syncitia formed,[3]; 5 μM,−
same,Day 7 syncitia formed,[3]; 5 μM,−
